Source: PubChem BioAssay (NCI)
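All cell lines were grown in 96-well plates and treated with compound for 48 hours. GI50 marks 50% less growth. TGI: concentration producing complete growth inhibition.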

What was measured:
Assay in all cases: NCI tumour cell line growth inhibition, 48 h
[1] = test system: HCT-15 colon
[2] = test system: IGROV1 ovarian
[3] = test system: M14 melanoma
[4] = test system: SK-OV-3 ovarian
[5] = test system: MCF7 breast
[6] = test system: SK-MEL-28 melanoma
[7] = test system: SF-295 CNS
[8] = test system: UACC-62 melanoma
[9] = test system: BT-549 breast
[10] = test system: CCRF-CEM leukemia
[11] = test system: RXF 393 renal
[12] = test system: T-47D breast
[13] = test system: SW-620 colon
[14] = test system: U251 CNS
[15] = test system: MALME-3M melanoma
[16] = test system: OVCAR-4 ovarian
[17] = test system: KM12 colon
[18] = test system: SF-268 CNS
[19] = test system: A549 NSCLC
[20] = test system: NCI-H23 lung
[21] = test system: DU-145 prostate
[22] = test system: SR leukemia
[23] = test system: SN12C renal
[24] = test system: NCI-H460 lung
[25] = test system: OVCAR-3 ovarian
[26] = test system: OVCAR-8 ovarian
[27] = test system: UO-31 renal
[28] = test system: SNB-19 CNS
[29] = test system: SF-539 CNS
[30] = test system: HOP-92 NSCLC
[31] = test system: NCI-H522 lung
[32] = test system: HCC-2998 colon
[33] = test system: UACC-257 melanoma
[34] = test system: COLO 205 colon
[35] = test system: TK-10 renal
[36] = test system: ACHN renal
[37] = test system: MDA-MB-435
[38] = test system: HT29 colon
[39] = test system: SK-MEL-5 melanoma
[40] = test system: RPMI-8226 leukemia
[41] = test system: HCT-116 colon
[42] = test system: LOX IMVI melanoma
[43] = test system: NCI/ADR-RES ovarian
[44] = test system: CAKI-1 renal
[45] = test system: MOLT-4 leukemia
[46] = test system: OVCAR-5 ovarian
[47] = test system: EKVX NSCLC
[48] = test system: HOP-62 NSCLC
[49] = test system: SK-MEL-2 melanoma
[50] = test system: MDA-MB-231 breast
[51] = test system: 786-0 renal
[52] = test system: PC-3 prostate
[53] = test system: SNB-75 CNS
[54] = test system: NCI-H226 lung

O=C(COc1nc2ccccc2nc1-c1ccccc1)Nc1ccc(Cl)cc1
GI50 [1]: 15.1 µM
TGI [1]: > 100 µM
GI50 [2]: 14.3 µM
TGI [2]: 49.4 µM
GI50 [3]: 11.4 µM
TGI [3]: 80.7 µM
GI50 [4]: 47.6 µM
TGI [4]: > 100 µM
GI50 [5]: 36.8 µM
TGI [5]: > 100 µM
GI50 [6]: 18.7 µM
TGI [6]: > 100 µM
GI50 [7]: 5.09 µM
TGI [7]: 40.1 µM
GI50 [8]: 12.9 µM
TGI [8]: 67.7 µM
GI50 [9]: 33.6 µM
TGI [9]: > 100 µM
GI50 [10]: 17.3 µM
TGI [10]: > 100 µM
GI50 [11]: 29.3 µM
TGI [11]: 80 µM
GI50 [12]: 37.5 µM
TGI [12]: > 100 µM
GI50 [13]: 25.7 µM
TGI [13]: > 100 µM
GI50 [14]: 13.2 µM
TGI [14]: 56.4 µM
GI50 [15]: 20.9 µM
TGI [15]: 66.3 µM
GI50 [16]: 27.7 µM
TGI [16]: > 100 µM
GI50 [17]: 8.38 µM
TGI [17]: > 100 µM
GI50 [18]: 18.5 µM
TGI [18]: > 100 µM
GI50 [19]: 27.8 µM
TGI [19]: > 100 µM
GI50 [20]: 24.9 µM
TGI [20]: > 100 µM
GI50 [21]: 54.9 µM
TGI [21]: > 100 µM
GI50 [22]: 6.54 µM
TGI [22]: > 100 µM
GI50 [23]: 27.4 µM
TGI [23]: > 100 µM
GI50 [24]: 9.79 µM
TGI [24]: 77.8 µM
GI50 [25]: 5.56 µM
TGI [25]: 36.9 µM
GI50 [26]: 11.3 µM
TGI [26]: > 100 µM
GI50 [27]: 17.1 µM
TGI [27]: > 100 µM
GI50 [28]: 21.6 µM
TGI [28]: 89.1 µM
GI50 [29]: 14.5 µM
TGI [29]: 45.4 µM
GI50 [30]: 8.77 µM
TGI [30]: 36.7 µM
GI50 [31]: 3.5 µM
TGI [31]: 28.6 µM
GI50 [32]: 15.6 µM
TGI [32]: > 100 µM
GI50 [33]: 50.1 µM
TGI [33]: > 100 µM
GI50 [34]: 15.5 µM
TGI [34]: > 100 µM
GI50 [35]: 15.1 µM
TGI [35]: 76.8 µM
GI50 [36]: 14.4 µM
TGI [36]: 37.9 µM
GI50 [37]: 18.4 µM
TGI [37]: > 100 µM
GI50 [38]: 11.4 µM
TGI [38]: > 100 µM
GI50 [39]: 4.17 µM
TGI [39]: 19.7 µM
GI50 [40]: 23.1 µM
TGI [40]: > 100 µM
GI50 [41]: 6.23 µM
TGI [41]: 27.8 µM
GI50 [42]: 15.7 µM
TGI [42]: 49.2 µM
GI50 [43]: 4.46 µM
TGI [43]: > 100 µM
GI50 [44]: 9.04 µM
TGI [44]: > 100 µM
GI50 [45]: 12.6 µM
TGI [45]: > 100 µM
GI50 [46]: 11 µM
TGI [46]: > 100 µM
GI50 [47]: 26.9 µM
TGI [47]: > 100 µM
GI50 [48]: 11.9 µM
TGI [48]: 40.2 µM
GI50 [49]: 15.1 µM
TGI [49]: 58 µM
GI50 [50]: 15.1 µM
TGI [50]: 65 µM
GI50 [51]: 14.3 µM
TGI [51]: 71.3 µM
GI50 [52]: 9.99 µM
TGI [52]: > 100 µM
GI50 [53]: 27.7 µM
TGI [53]: > 100 µM
GI50 [54]: 10.2 µM
TGI [54]: 49.1 µM
